“Also recorded” adds a separate entry of the source.
Assays:
Type in all cases: in vivo, rat
[1] = Skilled forelimb-reaching (food pellet retrieval) task after stroke; conditions: for food pellet retrieval with impaired paw, % of baseline: long-term study
Description: All procedures were carried out in accordance with NIH Guidelines with the approval of Children's Hospital Animal Care and Use Committee. Unilateral in-farcts were induced in the sensorimotor cortex of adult Sprague-Dawley rats (275-300 g; Charles River Laboratories, Wilmington, Mass.) using the photothrombotic model of focal ischemia (Markgraf et al., 1993). Briefly, rats were anesthetized with a combination of ketamine (75 mg/kg) and Domitor (medetomidine; 0.5 mg/kg) and a 15 mm skin incision was made at the midline rostral to the posterior suture. A craniotomy was performed over the sensorimotor cortex using a hand-held drill to open a window that spanned medio-laterally between the sagittal sinus and temporal ridge, and rostro-caudally between Bregma +2.5 mm and Bregma −3.5 mm. The photosensitive dye Rose Bengal was injected into the femoral vein, and a fiber-optic cable connected to a xenon light source was centered over the craniotomy, focusing light directly on the exposed region of the brain for 30 minutes. A green filter fitted over the bulb restricted illumination to ˜525 nm, a wavelength that excites Rose Bengal and causes it to release free radical species. The subsequent damage to endothelial cells in exposed portions of the cortical vasculature causes platelet aggregation, resulting in severe focal ischemia. […] Control animals were generated using the same surgical procedure but without photo-activation of Rose Bengal. Animals with strokes were randomly assigned to receive a continuous infusion of either saline (0.9%, Baxter Scientific; n=12), inosine (50 mM in saline, Sigma-Aldrich Co., St. Louis, Mo.; n=12), NEP1-40 (500 μM in 2.5% DMSO/97.5% saline; n=12), or inosine +NEP1-40 (n=12) into the cisterna magna using osmotic minipumps (0.25 μl/h, Alzet model 2004, Durect Corpora-tion, Palo Alto, Calif.). In addition to these, a separate set of animals with the same 4 groups (n=12 in each) was created for a long-term behavioral study. Because CSF drug concentrations presumably require several hours to achieve steady-state levels when delivered via slow-releasing osmotic pumps, all animals received a 25 μl intraventricular bolus of the appropriate agent prior to pump placement. Pumps were tucked between the shoulder blades and infusion needles were secured onto the cranium with a silicon-based glue. The incision was closed with silk sutures and cleaned with betadine and ethanol pads. For 72 hours following surgery, animals received twice-daily, subcu-taneous injections of Buprenex (buprenorphine; Reckitt Benkiser Pharmaceuticals Inc., Richmond, Va.) for pain management.
In animals in which both behavioral testing and anatomical tracing was performed, animals were tested at 7, 14, 21, and 28 days after surgery, whereas in the long-term behavioral study, minipumps were removed after 4 weeks and testing was continued weekly for another 4 weeks. All testing was done by an experimenter blind to the animals' treatments. A skilled forelimb-reaching task was used to test functional recovery after stroke. The task requires the rat to reach with either paw through a narrow slit in a Plexiglas box, grasp a banana-flavored food pellet (Bio-Serv, Inc., Frenchtown, N.J.) from a platform, and bring it successfully to the mouth (Allred and Jones, 2004; Luke et al., 2004). Three days prior to and during training, animals were maintained on a restricted diet of banana-flavored pellets to remove novelty-induced hesitation and to increase motivation. Rats were trained 30-60 minutes per day with each paw for two weeks or until they reached a baseline performance of 20-30 successful reaches in a two-minute period. At the end of the training period but prior to surgery, each animal was tested for the number of pellets it successfully grasped and ate in a two-minute trial, making certain that animals were motivated and stress-free. […]

[2] = Horizontal (irregular) ladder walk after dorsal hemisection of the spinal cord; conditions: i.c.v. (50 mM, 0.25 μl/hour) or i.v. (260 mM, 10 μl/hour) for 4 weeks
Description: (§1) To test the effects of inosine on spinal cord injury, the dorsal half of the spinal cord in rats was transected, severing the descending CST and other pathways. CST loss severely disrupted fine, skilled behaviors. Inosine was then administered either intra-cerebroventricularly (50 mM, 0.25 μl/hour) or intravenously (260 mM, 10 μl/hour) for 4 weeks. […] Complete transection of the corticospinal tract was verified histologically. The effectiveness of inosine was clinically relevant, since it avoids the risk of intracerebral infection.

[3] = Basso-Beatty-Bresnahan (BBB) locomotor test after dorsal hemisection of the spinal cord; conditions: i.c.v. (50 mM, 0.25 μl/hour) or i.v. (260 mM, 10 μl/hour) for 4 weeks
Description: as §1

[4] = test system: raphespinal fibers and corticospinal tract axons; test: Anatomical sprouting of raphespinal and corticospinal tract axons after spinal cord injury; conditions: after dorsal hemisection
Description: as §1

[5] = test system: corticospinal tract (CST) axons; test: BDA tracing of CST axons in sham-operated animals (no brain injury); conditions: sham surgery, 4 weeks treatment
Description: In groups treated for four weeks after stroke, animals were re-anesthetized, the infusion needle and pump were removed, and a craniotomy was performed over the uninjured SMA. The anterograde tracer bioti-nylated dextran amine (BDA: Molecular Probes: 10% wt/vol in sterile saline) was injected stereotaxically at depths of 0.5, 1.0, and 2.0 mm below the cortical surface at 18 standardized points distributed over the sensorimotor cortex (70 nl per injection; Nano-ject, Drummond Scientific, Broomall, Pa.). Two weeks later, animals were anesthetized and perfused transcardially with 0.9% saline followed by 4% paraformaldehyde. The brain and spinal cord were dissected and post-fixed overnight in 4% paraformaldehyde, followed by 10% and 30% sucrose solutions over the next few days. Tissue was em-bedded in OCT Tissue Tek Medium (Sakura Finetek USA Inc., CA) and frozen on dry ice. […] Six to ten sections spanning a distance of 1.2 mm were examined and quantified for (a) BDA-labeled axon profiles ≧40 μm in length within the dorsal funiculus on the denervated side of the spinal cord (ipsilateral to the BDA injection and contralateral to the injury); (b) BDA+axons≧40 μm in length in the gray matter of the denervated side of the spinal cord, and (c) BDA+axons≧200 μm in length on the denervated side. […] Average numbers of axons were calculated and converted to axons per mm of spinal cord. […]

Compound: OC[C@H]1O[C@@H](n2cnc3c(O)ncnc32)[C@H](O)[C@@H]1O [inosine]
- food pellet retrieval with impaired paw, outcome in words ([1]; 4-week study): superior to that of controls at 1 week
- food pellet retrieval with impaired paw, outcome in words ([1]; eight-week (long-term) study): significantly better than that of saline-treated controls from week 2 on
- food pellet retrieval with impaired paw, outcome in words ([1]; eight-week (long-term) study, listed as Inosine): strongly enhanced the effect of NEP1-40
- food pellet retrieval with impaired paw, % of baseline ([1]; week eight (4 weeks after pump removal)): ~80%
- food pellet retrieval with impaired paw, % of baseline ([1]; week four): ~70%
- performance with the unaffected (unimpaired) paw ([1]; paw ipsilateral to the stroke): performed normally; also recorded: No differences were detected
- food pellet retrieval with impaired paw, percentage of baseline (pre-operative) level ([1]; week 4 after stroke, 4-week study): approximately 80%
- performance on horizontal ladder walk [2]: enhanced performance; also recorded: far superior to saline-treated controls
- performance on BBB test for general locomotor activity [3]: enhanced performance; also recorded: returned to near-normal level of performance
- long-distance corticospinal tract regeneration [4]: modest effects
- sprouting of corticospinal tract axons rostral to the injury site [4]: enhanced the sprouting
- sprouting of raphespinal fibers distal to the injury site [4]: enhanced the sprouting
- labeled CST axons in spinal grey matter ipsilateral to the labeled hemisphere [5]: 77.5±9.0 axons/mm

Source: US8912144B2, “Method for treating stroke via administration of NEP1-40 and inosine” (Children's Medical Center Corporation, priority 2003, dated 2014)
